From patent US6444695B1, “Inhibition of thrombin-induced platelet aggregation by creatine kinase inhibitors” (The Regents of the University of California, priority 2000, dated 2002)
“Also recorded” adds a separate entry of the source.

Columns and labels:
[1] = system: primary cortical astrocyte cultures; experiment: Astrocyte morphology studies (thrombin-induced shape change, stellate vs flat); format: cell-based, rat; details: for effect on morphological response of astrocytes to thrombin / fold greater number of astrocytes remaining stellate after thrombin: 10 pM thrombin 2 h; for fold greater number of astrocytes remaining stellate after thrombin: versus thrombin alone
Experimental: Coimmunoprecipitation. Primary cortical astrocyte cultures were prepared from 1- to 2-day-old Sprague-Dawley rats as described in Donovan, et al., (1997) J. Neurosci. 17: 5316-5326. Astrocytes were solubilized and incubated with control antibody (rabbit IgG) or anti-PAR-1 antibody overnight at 4° C. in the presence of protein A-Sepharose. Immunoprecipitation products were either subjected to CKB activity assays or separated by SDS/PAGE and analyzed on immunoblots with anti-CKB antibodies.
(§1) Astrocyte Morphology Studies. Oligonucleotides based on a CKB antisense sequence (GUGUCUGCAACAGCUUAGC-CAUCAG), a control reverse sequence ([…]), and an identical antisense sequence rendered insensitive to RNaseH were purchased from Sequitur (Natick, Mass.) and transformed into primary astrocyte cultures with Lipofectin (GIBCO/BRL) for 1 h. After 18 h, cells were differentiated in 1.5 mM dibutyryl cAMP for 2 h. A total of 10 pM thrombin was added for 2 h for a maximal response, and the morphology of approximately 200 cells was examined under phase-contrast micrography and scored as either stellate or flat. Antisense knockdown of CKB was confirmed by immunoblot analysis. Morphology assays were also performed after a 4-h treatment with 50 mM cyclocreatine.

CKB = CKB immunoblot after antisense knockdown; format: cell-based, rat; details: astrocytes, 18 h after transfection
Experimental: as §1

astrocytes [2] = experiment: Total cellular ATP levels and cell viability; format: cell-based, rat; details: data not shown
Experimental: Materials. The protein-protein interaction screen was performed by using the Matchmaker GAL4 two-hybrid system and a rat brain cDNA library (CLONTECH). Rabbit anti-PAR-1 antibody was a gift from M. Runge (University of Texas Medical Branch, Galveston), anti-CKB antibodies were obtained from Chemicon, and anti-RhoA was from Santa Cruz Biotechnology. CKB activity was measured with CK 520 Sigma. ATP levels were measured with the bioluminescent somatic cell assay (Sigma FL-ASC). Thrombin and purified CKB were purchased from Calbiochem, and cyclocreatine was purchased from Sigma. Site-directed mutagenesis was performed with Quick Change (Stratagene). G. Molloy (Delaware University) graciously provided the CKB plasmid, and T. Ma (Baylor College, Houston) provided the dominant negative CKB mutant. Statistical analysis was carried out by using two-way ANOVA.

[3] = system: human umbilical vein endothelial cells (HUVEC); experiment: Intracellular calcium assay (Fluo-3, FLIPR) in HUVEC after thrombin; format: cell-based
Experimental: To assay for intracellular calcium levels, cell media was decanted and replaced with Fluo-3 AM (Molecular Probes) in […] of loading buffer with 1% Fetal Calf Serum (FCS) for 1 hour. Cells were rinsed with loading buffer and the 96-well plate was placed into a Fluorometric Imaging Plate Reader (FLIPR, Molecular Devices, Sunnyvale, Calif.). The relative intracellular calcium levels were monitored at […] for 210 seconds in 4 to 8 identically treated wells. To monitor calcium release from intracellular stores thrombin was delivered in buffer containing 10 mM EDTA. Various phospholipase C inhibitors were applied as well.

[4] = system: human umbilical vein endothelial cells (HUVEC); experiment: Thrombin-induced cell rounding / contraction of HUVEC; format: cell-based; details: for % of cells round after thrombin: thrombin 10 pM 20 minutes (control 2%, thrombin alone 80%); for effect on thrombin-induced cell rounding / contraction: thrombin 10 pM 20 minutes
Experimental: Primary cultures of pooled Human umbilical vein endothelial cells (HUVEC) cells were purchased from Clonetics (Walkersville, Md.) and cultured according to the manufacturer's protocol. About 2500 cells/cm^2 were cultured in Endothelial Cell Growth Medium BulletKit-2 (Clonetics, Walkersville, Md.) on collagen (Gibco, Grand Island, N.Y.) coated RS Lab Tek II slides for 5 days until confluent. Cells were then cultured in low serum (0.5%) medium overnight. Cells were treated with 50 mM cyclocreatine for 3 to 4 hours, or with […] ROCK (Rho Kinase) inhibitor Y-27632 for 30 minutes, as described in Maekawa et al., (1999) Science 285: 895-8, hereby incorporated by reference in its entirety.
Thrombin was delivered at a final concentration of 10 pM for 20 minutes to endothelial cells. F-actin was stained with Alexa 594 phalloidin (Molecular Probes). HUVECs were examined under fluorescence and phase contrast micrography, and cells were scored as either round or flat.

astrocytes [5] = experiment: Intracellular calcium assay (Fluo-3, FLIPR) in astrocytes after thrombin; format: cell-based, rat; details: thrombin 10 pM, cyclocreatine 50 mM 4 h or U-73122 1 μM 10 min
Experimental: Intracellular Calcium Assay. Astrocytes were treated with or without 50 mM cyclocreatine for 4 h. Cell medium was decanted and replaced with Fluo-3 AM (Molecular Probes) for 1 h. Some wells received 1 μM U-73122 (Biomol, Plymouth Meeting, Pa.) for 10 min before 10 pM thrombin and 10 mM EDTA injection. The relative intracellular calcium levels were monitored at […] for 210 sec in 4-8 identically treated wells by using a Fluorometric Imaging Plate Reader (Molecular Devices).

Ad12HER10 retinoblasts = experiment: Thrombin/PAR-1 morphological response in retinoblasts; format: cell-based, human; details: Ad12HER10, data not shown
Experimental: Dominant Negative CKB Studies. The dominant negative CKB mutant C283S, described in Lin, et al., (1994) Biochim. Biophys. Acta 1206: 97-104, was cloned into the pIRES-EGFP vector (CLONTECH) and transfected for 6 h with Novafector (VennNova, LCC) into Ad12HER10 retinoblasts seeded into Lab-Tek II slides (Nunc). After 18 h, cells were differentiated with 2 mM dibutyryl cAMP in serum-free medium for 6 h. After addition of thrombin (160 nM) for 2 h, transfected cells (20-30%) were identified by fluorescence micrography, and the cell morphology of approximately 100 transfected cells was examined with phase-contrast illumination and scored blind to treatment as either refractile or flat.

platelets = experiment: Thrombin-induced platelet aggregation in platelet-rich plasma (Chrono-Log aggregometer); format: cell-based, human; details: 30 min preincubation, 1 nM thrombin, PRP
Experimental: Blood from healthy volunteers was collected in an anti-coagulant citrate solution according to standard protocols. The whole blood/citrate solution was centrifuged at 200×g for 10 minutes to obtain platelet-rich plasma (PRP). The platelet count, as determined by Coulter Counter, was 2.88×10^8/mL. Aliquots (0.5 mL each) of the PRP were incubated with and without various concentrations of cyclocreatine (0 to 10 mM final concentration) for 30 minutes at room temperature. The aggregation assay was then carried out in the presence of thrombin (10 ul of thrombin was added to each aliquot, to a final concentration of 1 nM) with stirring at 37° C. using a Chrono-Log Whole Blood Aggregometer. (Chronolog Corp., Havertown, Pa.) Absorbance was measured at 500 nm.

RhoA = RhoA activation and translocation assay; format: cell-based, rat; details: astrocytes, 50 mM cyclocreatine 4 h
Experimental: RhoA Activation and Translocation Assay. Active RhoA levels were measured in primary rat astrocytes as described in Ren, et al., (1999) EMBO J. 18: 578-585. Astrocytes received a 4-h 50 mM cyclocreatine treatment before the thrombin (10 pM) addition for 10 min. Cell lysates were incubated with GST-Rhotekin binding domain (20-30 μg) for 45 min, washed, and immunoprobed with anti-RhoA antibody. For membrane RhoA, crude membrane fractions were prepared as described in Donovan, et al., (1997) J. Neurosci. 17: 5316-5326. Fifteen micrograms of membrane protein fractions was separated by SDS/PAGE and immunoblotted with anti-RhoA antibody.

“reverse sequence ODN (Rev): control reverse sequence oligonucleotide GACUACCGAUUCGACAACGUCUGUG (chemistry not given here) [reference compound]” was tested, and the “effect on morphological response of astrocytes to thrombin” value (“effect on morphological response” for short) [1] was “Neither a reverse sequence ODN (Rev) nor the ODN rendered insensitive to RNaseH had any significant effect” and the “CKB expression level (Western blot)” value (CKB) was “Neither a reverse sequence ODN (Rev) nor the ODN rendered insensitive to RNaseH had any significant effect”.

For “CKB antisense ODNs: antisense oligonucleotide GUGUCUGCAACAGCUUAGC-CAUCAG directed toward the 3′ end of the CKB mRNA (Sequitur) (antisense GUGUCUGCAACAGCUUAGCCAUCAG; chemistry not given here)”, the “effect on cell viability” value (astrocytes [2]) was “did not affect”, the “effect on total cellular ATP levels” value (astrocytes [2]) was “did not affect” and the “effect on morphological response” value [1] was “no longer responded”. For the same compound, the “fold greater number of astrocytes remaining stellate after thrombin” value [1] was greater than 3 fold, the “effect on astrocyte morphology without thrombin” value ([1]; treatment alone) was “without affecting” and the “CKB expression level (Western blot)” value (CKB) was “significantly lower levels”.

For `CCCCCCCCCCCCCCCCCCOCC(COP(=O)([O-])OCC[N+](C)(C)C)OC` (centres unmarked) [ET18-OCH3], the “effect on thrombin-induced calcium response (peak fluorescence)” value [3] was “completely abolished”.

For `C[C@@H](N)[C@H]1CC[C@H](C(=O)Nc2ccncc2)CC1` [ROCK (Rho Kinase) inhibitor, Y-27632, reference compound], the “% of cells round after thrombin” value ([4]; 10 mM Y-27632 for 30 minutes) was 2% and the “effect on thrombin-induced cell rounding / contraction” value [4] was “completely blocked”.

With `COc1ccc2c(c1)CC[C@@H]1[C@@H]2CC[C@]2(C)[C@@H](NCCCCCCN3C(=O)C=CC3=O)CC[C@@H]12` [U-73122, reference compound] the “effect on thrombin-induced calcium response (peak fluorescence)” value [3] was “completely abolished” and the “effect on thrombin-induced peak intracellular calcium” value (astrocytes [5]) was “inhibited”.

`NC1=NCCN1CC(=O)O` [cyclocreatine] was tested, and the “effect on cell viability” value (astrocytes [2]) was “no effect”, the “effect on total cellular ATP levels” value (astrocytes [2]) was “no effect” and the “effect on thrombin/PAR-1 morphological response in retinoblasts” value (Ad12HER10 retinoblasts) was “blocked”. The “% Aggregation of Platelets” value (platelets; 1 mM cyclocreatine) was 88%, the “% Aggregation of Platelets” value (platelets; 5 mM cyclocreatine) was 11% and the “% Aggregation of Platelets” value (platelets; 10 mM cyclocreatine) was 0%. For the same compound, the “effect on thrombin-induced calcium response (peak fluorescence)” value [3] was “almost no effect; also recorded: no significant changes”, the “% of cells round after thrombin” value ([4]; maximum dose of cyclocreatine (50 mM, 3 to 4 hours)) was 20% and the “effect on thrombin-induced cell rounding / contraction” value [4] was “inhibited; also recorded: dose-dependent protective effect; also recorded: protected”. The “effect on thrombin-induced peak intracellular calcium” value (astrocytes [5]) was “only a minor decline”, the “effect on morphological response” value [1] was “dose-dependent decrease” and the “fold greater number of astrocytes remaining stellate after thrombin” value [1] was no more than 4 fold. The “effect on morphological response” value ([1]; listed as Cyclocreatine) was “protects”, the “RhoA translocation to the membrane after thrombin treatment” value (RhoA; thrombin 10 pM) was “almost no translocation” and the “GTP-RhoA after thrombin treatment (GST-rhotekin pull-down)” value (RhoA; thrombin 10 pM 10 min) was “significantly reduced”.

For `C/C=C(/C)C(=O)O[C@H]1C(C)=C2[C@H]([C@@H]1OC(=O)CCCCCCC)[C@@](C)(OC(C)=O)C[C@H](OC(=O)CCC)[C@@]1(O)[C@H]2OC(=O)[C@@]1(C)O` [thapsigargin], the “effect on thrombin-induced calcium response (peak fluorescence)” value [3] was “completely abolished”.
